In patent US10966426B2, “Herbicidal compositions comprising phenylpyrimidines” (BASF SE, priority 2016, dated 2021):

Key:
Type in all cases: in vivo
[1] = system: Matricaria chamomilla; test: greenhouse post-emergence treatment, MATCH; details: for % activity: 20 DAT
Method in brief: (§1)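 Seeds sown per species in pots of loamy sand; seedlings either grown in place or transplanted days before treatment. Post-emergence spray of water-based liquor at 3–15 cm height. Injury rated 0–100 over 2 to 4 weeks.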

[2] = system: Setaria viridis; test: greenhouse post-emergence treatment, SETVI; details: for % activity: 20 DAT
Method in brief: (§2)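 Greenhouse test in humus-containing (~3.0%) loamy sand at species-dependent temperatures of 10-25° C. or 20-35° C.; treatments applied in water. Damage rated visually after 2–4 weeks (0 = none, 100 = complete destruction or no emergence).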

[3] = system: Digitaria sanguinalis; test: greenhouse post-emergence treatment, DIGSA; details: for % activity: 20 DAT
Method in brief: as §2

[4] = system: Echinocloa crus-galli; test: greenhouse post-emergence treatment, ECHCG
Method: (§3) The culture containers used were plastic pots containing loamy sand with approximately 3.0% of humus as substrate. The seeds of the test plants were sown separately for each species.
(§4) For the post-emergence treatment, the test plants were grown to a plant height of from 3 to 15 cm, depending on the plant habit, and only then treated with the active compounds which had been suspended or emulsified in water. To this end, the test plants were either sown directly, and grown in the same containers, or they were first grown separately as seedlings and transplanted into the test containers a few days prior to treatment.
(§5) Depending on the species, the plants were kept at 10-25° C. and 20-35° C., respectively.
(§6) The test period extended over 2 to 4 weeks. During this time, the plants were tended and their response to the individual treatments was evaluated.
(§7) Evaluation was carried out using a scale from 0 to 100. 100 means no emergence of the plants, or complete destruction of at least the above-ground parts, and 0 means no damage or normal course of growth. A good herbicidal activity is given at values of at least 70, and very good herbicidal activity is given at values of at least 85.
(§8) The respective stated components A and B, and if appropriate, C were formulated as a 10% by weight strength emulsion concentrate and, with addition of the amount of solvent system, introduced into the spray liquor used for applying the active compound. In the examples, the solvent used was water.
(§9) In the examples below, using the method of S. R. Colby (1967) “Calculating synergistic and antagonistic responses of herbicide combinations”, Weeds 15, p. 22ff., the value E, which is expected if the activity of the individual active compounds is only additive, was calculated. E=X+Y−(X·Y/100) where X=effect in percent using herbicide A at an application rate a; • Y=effect in percent using herbicide B at application rate b; • E=expected effect (in %) of herbicide A+herbicide B at application rates a+b.

[5] = system: Ambrosia elatior; test: greenhouse post-emergence treatment, AMBEL; details: for % activity: 20 DAT
Method: as §3, §4, §5, §6, §7, §8, §9

[6] = system: Galium aparine; test: greenhouse post-emergence treatment, GALAP; details: for % activity: 20 DAT
Method in brief: as §1

[7] = system: Papaver rhoeas; test: greenhouse post-emergence treatment, PAPRH; details: for % activity: 20 DAT
Method in brief: as §1

[8] = system: Polygonum convolvulus; test: greenhouse post-emergence treatment, POLCO
Method in brief: as §1

[9] = system: Lolium multiflorum; test: greenhouse post-emergence treatment, LOLMU
Method in brief: as §2

[10] = system: Stellaria media; test: greenhouse post-emergence treatment, STEME
Method: as §3, §4, §5, §6, §7, §8, §9

[11] = system: Avena fatua; test: greenhouse post-emergence treatment, AVEFA; details: Avena fatua, 504 h, 21 DAT, AVEFA
Method in brief: as §2

[12] = system: Brachiaria decumbens; test: greenhouse post-emergence treatment, BRADC; details: Urochloa decumbens, 504 h, 21 DAT, BRADC
Method in brief: (§10)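 Foliar application to greenhouse-grown plants 3–15 cm tall in humus-containing loamy sand; response assessed on a 0–100 scale after 2–4 weeks, with Colby's E=X+Y−(X·Y/100) as the additive expectation.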

[13] = system: Poa annua; test: greenhouse post-emergence treatment, POAAN; details: Poa annua, 504 h, pyroxasulfone solo 15 gai/ha, 21 DAT, POAAN
Method in brief: as §10

[14] = system: Bromus sterilis; test: greenhouse post-emergence treatment, BROST; details: Bromus sterilis, 504 h, 21 DAT, BROST
Method in brief: as §2

[15] = system: Alopecurus myosuroides; test: greenhouse post-emergence treatment, ALOMY; details: Alopecurus myosuroides, 504 h, 21 DAT, ALOMY
Method in brief: as §2

[16] = 20 DAT, mesosulfuron solo 2 gai/ha

## COC(=O)c1ccc(CNS(C)(=O)=O)cc1S(=O)(=O)NC(=O)Nc1nc(OC)cc(OC)n1 [mesosulfuron]
[1]; mesosulfuron solo 1 gai/ha
  % activity: 30%
[1]; mesosulfuron solo 2 gai/ha
  % activity: 30%
[1]; mesosulfuron solo 8 gai/ha
  % activity: 90%
[1]; mesosulfuron solo 9 gai/ha
  % activity: 90%
[1]; mesosulfuron solo (Mesosulfuron - Methyl WG […]), 2 gai/ha, MATCH
  % activity: 30%
[2]; mesosulfuron solo 8 gai/ha
  % activity: 85%
[2]; mesosulfuron solo (Mesosulfuron - Methyl WG […]), 8 gai/ha, SETVI
  % activity: 85%
[3]; mesosulfuron solo 1 gai/ha
  % activity: 0%
[3]; mesosulfuron solo 2 gai/ha
  % activity: 0%
[3]; mesosulfuron solo 4 gai/ha
  % activity: 20%
[4]; [16]
  % activity: 0%
[5]; mesosulfuron solo 2 gai/ha
  % activity: 80%
[5]; mesosulfuron solo 4 gai/ha
  % activity: 85%
[6]; mesosulfuron solo 4 gai/ha
  % activity: 65%
[6]; mesosulfuron solo 8 gai/ha
  % activity: 75%
[6]; mesosulfuron solo (Mesosulfuron - Methyl WG […]), 1 gai/ha, GALAP
  % activity: 55%
[6]; mesosulfuron solo (Mesosulfuron - Methyl WG […]), 2 gai/ha, GALAP
  % activity: 65%
[6]; mesosulfuron solo (Mesosulfuron - Methyl WG […]), 4 gai/ha, GALAP
  % activity: 65%
[6]; mesosulfuron solo (Mesosulfuron - Methyl WG […]), 8 gai/ha, GALAP
  % activity: 75%
[7]; mesosulfuron solo 1 gai/ha
  % activity: 70%
[7]; mesosulfuron solo 2 gai/ha
  % activity: 90%
[7]; mesosulfuron solo 8 gai/ha
  % activity: 98%
[7]; mesosulfuron solo (Mesosulfuron - Methyl WG […]), 1 gai/ha, PAPRH
  % activity: 70%
[8]; [16]
  % activity: 30%
[9]; 20 DAT, mesosulfuron solo 8 gai/ha
  % activity: 90%
[10]; 20 DAT, mesosulfuron solo 1 gai/ha
  % activity: 95%

## Cn1nc(C(F)(F)F)c(CS(=O)(=O)C2=NOC(C)(C)C2)c1OC(F)F [pyroxasulfone]
[1]; Matricaria chamomilla, 504 h, MATCH, solo pyroxasulfone (WG 85%) 15 gai/ha, 21 DAT
  pest or weed control at 15 g/ha: 0%
[1]; Matricaria chamomilla, 504 h, pyroxasulfone solo 15 gai/ha, 21 DAT, MATCH
  inhibition at 15 g/ha: 0%
[2]; Setaria viridis, 504 h, SETVI, solo pyroxasulfone (WG 85%) 15 gai/ha, 21 DAT
  pest or weed control at 15 g/ha: 40%
[3]; Digitaria sanguinalis, 504 h, DIGSA, solo pyroxasulfone (WG 85%) 7.5 gai/ha, 21 DAT
  pest or weed control at […]: 0%
[3]; Digitaria sanguinalis, 504 h, DIGSA, solo pyroxasulfone (WG 85%) 15 gai/ha, 21 DAT
  pest or weed control at 15 g/ha: 0%
[4]; Echinochloa crus-galli, 504 h, pyroxasulfone solo 60 gai/ha, 21 DAT, ECHCG, read-out: % activity
  inhibition at 60 g/ha: 80%
[5]; Ambrosia artemisiifolia, 504 h, pyroxasulfone solo 30 gai/ha, 21 DAT, AMBEL
  inhibition at 30 g/ha: 20%
[5]; Ambrosia artemisiifolia, 504 h, pyroxasulfone solo 60 gai/ha, 21 DAT, AMBEL
  inhibition at 60 g/ha: 60%
[6]; Galium aparine, 504 h, GALAP, solo pyroxasulfone (WG 85%) 15 gai/ha, 21 DAT
  pest or weed control at 15 g/ha: 70%
[6]; Galium aparine, 504 h, pyroxasulfone solo 7.5 gai/ha, 21 DAT, GALAP
  inhibition at […]: 40%
[7]; Papaver rhoeas, 504 h, PAPRH, solo pyroxasulfone (WG 85%) 7.5 gai/ha, 21 DAT
  pest or weed control at […]: 0%
[7]; Papaver rhoeas, 504 h, PAPRH, solo pyroxasulfone (WG 85%) 15 gai/ha, 21 DAT
  pest or weed control at 15 g/ha: 0%
[7]; Papaver rhoeas, 504 h, PAPRH, solo pyroxasulfone (WG 85%) 30 gai/ha, 21 DAT
  pest or weed control at 30 g/ha: 30%
[7]; Papaver rhoeas, 504 h, PAPRH, solo pyroxasulfone (WG 85%) 60 gai/ha, 21 DAT
  pest or weed control at 60 g/ha: 60%
[7]; Papaver rhoeas, 504 h, pyroxasulfone solo 15 gai/ha, 21 DAT, PAPRH
  inhibition at 15 g/ha: 0%
[7]; Papaver rhoeas, 504 h, pyroxasulfone solo 60 gai/ha, 21 DAT, PAPRH
  inhibition at 60 g/ha: 60%
[8]; Fallopia convolvulus, 504 h, POLCO, solo pyroxasulfone (WG 85%) 7.5 gai/ha, 21 DAT
  pest or weed control at […]: 30%
[8]; Fallopia convolvulus, 504 h, POLCO, solo pyroxasulfone (WG 85%) 15 gai/ha, 21 DAT
  pest or weed control at 15 g/ha: 30%
[8]; Fallopia convolvulus, 504 h, POLCO, solo pyroxasulfone (WG 85%) 30 gai/ha, 21 DAT
  pest or weed control at 30 g/ha: 30%
[8]; Fallopia convolvulus, 504 h, POLCO, solo pyroxasulfone (WG 85%) 60 gai/ha, 21 DAT
  pest or weed control at 60 g/ha: 30%
[8]; Fallopia convolvulus, 504 h, pyroxasulfone solo 7.5 gai/ha, 21 DAT, POLCO
  inhibition at […]: 30%
[8]; Fallopia convolvulus, 504 h, pyroxasulfone solo 15 gai/ha, 21 DAT, POLCO
  inhibition at 15 g/ha: 30%
[8]; Fallopia convolvulus, 504 h, pyroxasulfone solo 30 gai/ha, 21 DAT, POLCO
  inhibition at 30 g/ha: 30%
[8]; Fallopia convolvulus, 504 h, pyroxasulfone solo 60 gai/ha, 21 DAT, POLCO
  inhibition at 60 g/ha: 30%
[11]; pyroxasulfone solo 7.5 gai/ha
  inhibition at […]: 25%
[11]; pyroxasulfone solo 15 gai/ha
  inhibition at 15 g/ha: 30%
[12]; pyroxasulfone solo 7.5 gai/ha
  inhibition at […]: 0%
[12]; pyroxasulfone solo 30 gai/ha, read-out: % activity
  inhibition at 30 g/ha: 55%
[12]; pyroxasulfone solo 60 gai/ha, read-out: % activity
  inhibition at 60 g/ha: 75%
[13]
  inhibition at 15 g/ha: 70%
[14]; pyroxasulfone solo 7.5 gai/ha
  inhibition at […]: 20%
[14]; pyroxasulfone solo 15 gai/ha
  inhibition at 15 g/ha: 40%
[9]; Lolium multiflorum, 504 h, pyroxasulfone solo 7.5 gai/ha, 21 DAT, LOLMU
  inhibition at […]: 40%
[9]; Lolium multiflorum, 504 h, pyroxasulfone solo 15 gai/ha, 21 DAT, LOLMU
  inhibition at 15 g/ha: 65%
[9]; Lolium multiflorum, 504 h, pyroxasulfone solo 30 gai/ha, 21 DAT, LOLMU
  inhibition at 30 g/ha: 70%
[10]; Stellaria media, 504 h, pyroxasulfone solo 30 gai/ha, 21 DAT, STEME
  inhibition at 30 g/ha: 0%
[15]; pyroxasulfone solo 7.5 gai/ha
  inhibition at […]: 35%
[15]; pyroxasulfone solo 30 gai/ha
  inhibition at 30 g/ha: 65%
